Activity calls are given as the source filed them. The calls are words filed in the database; no cut-off is given here.
Assays:
MDA-MB-231 [1] = assay: Downregulation of BRD4 expression in human MDA-MB-231 cells by Western blot analysis; format: functional, cell-based; settings: dose 0.2-5 µM
MDA-MB-231 [2] = assay: Downregulation of SLC3A2 expression in human MDA-MB-231 cells; format: functional, cell-based; settings: dose 0.2-5 µM
[3] = Toxicity in nude mouse xenografted with human MDA-MB-231 cells at 50 mg/kg, ip administered daily for 21 days; format: organism-based; settings: in vivo, 504 h, time 21 day
MDA-MB-231 [4] = assay: cells; settings: Homo sapiens, MDA-MB-231, 72 h
Description: Antiproliferative activity against human MDA-MB-231 cells assessed as inhibition of cell proliferation incubated for 72 hrs by MTT assay

MDA-MB-231 [5] = assay: Induction of apoptosis in human MDA-MB-231 cells assessed as viable cells at 0.2 uM incubated for 48 hrs by Annexin V/PI staining based flow cytometry analysis (reference value: 97.85%); format: functional; settings: read-out: Activity
MDA-MB-231 [6] = assay: Downregulation of HO-1 expression in human MDA-MB-231 cells at 0.2 to 5 uM; format: functional, cell-based; settings: dose 0.2-5 µM
MDA-MB-231 [7] = assay: Induction of ferroptosis in human MDA-MB-231 cells assessed as increase in intracellular Fe2+ level at 0.2 to 5 uM incubated for 48 hrs by FerroOrange staining based flow cytometry analysis; format: functional, cell-based; settings: dose 0.2-5 µM
MDA-MB-231 [8] = assay: Induction of apoptosis in human MDA-MB-231 cells assessed as viable cells at 1 uM incubated for 48 hrs by Annexin V/PI staining based flow cytometry analysis (reference value: 97.85%); format: functional; settings: read-out: Activity
MDA-MB-231 [9] = assay: Induction of cell cycle arrest in human MDA-MB-231 cells assessed as accumulation of cells at G0/G1 phase at 5 uM incubated for 48 hrs by propidium iodide staining flow cytometric analysis (reference value: 64.56 %); format: functional
[10] = target: Bromodomain-containing protein 4 (Homo sapiens, UniProt O60885); assay: Inhibition of BRD4 (unknown origin) incubated for 120 mins by TR-FRET assay
MDA-MB-231 [11] = assay: Induction of cell cycle arrest in human MDA-MB-231 cells assessed as accumulation of cells at G0/G1 phase at 1 uM incubated for 48 hrs by propidium iodide staining flow cytometric analysis (reference value: 64.56 %); format: functional
MDA-MB-231 [12] = assay: Antitumor activity against human MDA-MB-231 cells xenografted in nude mouse assessed as suppression of tumor growth at 50 mg/kg, ip administered daily for 21 days; format: functional, organism-based; settings: time 21.0 day
MDA-MB-231 [13] = assay: Induction of cell cycle arrest in human MDA-MB-231 cells assessed as accumulation of cells at S phase at 1 uM incubated for 48 hrs by propidium iodide staining flow cytometric analysis (reference value: 26.75%); format: functional
MDA-MB-231 [14] = assay: Induction of ferroptosis in human MDA-MB-231 cells assessed as increase in intracellular MDA accumulation incubated for 48 hrs; format: functional, cell-based; settings: dose 0.2-5 µM
MDA-MB-231 [15] = assay: Anti-metastatic activity in human MDA-MB-231 cells assessed as inhibition of cell migration incubated for 24 hrs by inverted microscopic analysis; format: functional, cell-based; settings: dose 0.2-5 µM
MDA-MB-231 [16] = assay: Induction of apoptosis in human MDA-MB-231 cells assessed as late apoptotic cells at 5 uM incubated for 48 hrs by Annexin V/PI staining based flow cytometry analysis (reference value: 0.14%); format: functional
MDA-MB-231 [17] = assay: Induction of cell cycle arrest in human MDA-MB-231 cells assessed as accumulation of cells at G2/M phase at 5 uM incubated for 48 hrs by propidium iodide staining flow cytometric analysis (reference value: 8.69%); format: functional
MDA-MB-231 [18] = assay: Induction of apoptosis in human MDA-MB-231 cells assessed as early apoptotic cells at 5 uM incubated for 48 hrs by Annexin V/PI staining based flow cytometry analysis (reference value: 0.80%); format: functional
MDA-MB-231 [19] = assay: Induction of ferroptosis in human MDA-MB-231 cells assessed as decrease in GSH level incubated for 48 hrs; format: functional, cell-based; settings: dose 0.2-5 µM
MDA-MB-231 [20] = assay: Downregulation of FTH1 expression in human MDA-MB-231 cells; format: functional, cell-based; settings: dose 0.2-5 µM
MDA-MB-231 [21] = assay: Induction of cell cycle arrest in human MDA-MB-231 cells assessed as accumulation of cells at G2/M phase at 1 uM incubated for 48 hrs by propidium iodide staining flow cytometric analysis (reference value: 8.69%); format: functional
MDA-MB-231 [22] = assay: Downregulation of FSP1 expression in human MDA-MB-231 cells; format: functional, cell-based; settings: dose 0.2-5 µM
MDA-MB-231 [23] = assay: Induction of apoptosis in human MDA-MB-231 cells assessed as necrotic cells at 5 uM incubated for 48 hrs by Annexin V/PI staining based flow cytometry analysis (reference value: 0.03%); format: functional
MDA-MB-231 [24] = assay: Downregulation of NRF2 expression in human MDA-MB-231 cells at 0.2 to 5 uM; format: functional, cell-based; settings: dose 0.2-5 µM
MDA-MB-231 [25] = assay: Antitumor activity against human MDA-MB-231 cells xenografted in nude mouse assessed as tumor growth inhibition at 50 mg/kg, ip administered daily for 21 days; format: functional; settings: MDA-MB-231, 504 h, time 21 day, read-out: TGI
MDA-MB-231 [26] = assay: Induction of cell cycle arrest in human MDA-MB-231 cells assessed as accumulation of cells at G2/M phase at 0.2 uM incubated for 48 hrs by propidium iodide staining flow cytometric analysis (reference value: 8.69%); format: functional
MDA-MB-231 [27] = assay: Induction of apoptosis in human MDA-MB-231 cells assessed as viable cells at 5 uM incubated for 48 hrs by Annexin V/PI staining based flow cytometry analysis (reference value: 97.85%); format: functional; settings: read-out: Activity
[28] = Cytotoxicity against human MCF-10A cells assessed as inhibition of cell proliferation incubated for 72 hrs by MTT assay; format: toxicity, cell-based
MDA-MB-231 [29] = assay: Induction of apoptosis in human MDA-MB-231 cells assessed as necrotic cells at 1 uM incubated for 48 hrs by Annexin V/PI staining based flow cytometry analysis (reference value: 0.03%); format: functional
MDA-MB-231 [30] = assay: Downregulation of GPX4 expression in human MDA-MB-231 cells by Western blot analysis; format: functional, cell-based; settings: dose 0.2-5 µM
MDA-MB-231 [31] = assay: Induction of cell cycle arrest in human MDA-MB-231 cells assessed as accumulation of cells at G0/G1 phase at 0.2 uM incubated for 48 hrs by propidium iodide staining flow cytometric analysis (reference value: 64.56 %); format: functional
MDA-MB-231 [32] = assay: Induction of apoptosis in human MDA-MB-231 cells assessed as upregulation of C-myc expression at 0.2 to 5 uM; format: functional, cell-based; settings: dose 0.2-5 µM
MDA-MB-231 [33] = assay: Induction of apoptosis in human MDA-MB-231 cells assessed as late apoptotic cells at 0.2 uM incubated for 48 hrs by Annexin V/PI staining based flow cytometry analysis (reference value: 0.14%); format: functional
MDA-MB-231 [34] = assay: Downregulation of SLC7A11 expression in human MDA-MB-231 cells; format: functional, cell-based; settings: dose 0.2-5 µM
MDA-MB-231 [35] = assay: Induction of apoptosis in human MDA-MB-231 cells assessed as early apoptotic cells at 0.2 uM incubated for 48 hrs by Annexin V/PI staining based flow cytometry analysis (reference value: 0.80%); format: functional
BT-549 = assay: cells; settings: Homo sapiens, BT-549, 72 h
Description: Antiproliferative activity against human BT-549 cells assessed as inhibition of cell proliferation incubated for 72 hrs by MTT assay

MDA-MB-231 [36] = assay: Induction of cell cycle arrest in human MDA-MB-231 cells assessed as accumulation of cells at S phase at 0.2 uM incubated for 48 hrs by propidium iodide staining flow cytometric analysis (reference value: 26.75%); format: functional
MDA-MB-231 [37] = assay: Induction of cell cycle arrest in human MDA-MB-231 cells assessed as accumulation of cells at S phase at 5 uM incubated for 48 hrs by propidium iodide staining flow cytometric analysis (reference value: 26.75%); format: functional
MDA-MB-231 [38] = assay: Induction of apoptosis in human MDA-MB-231 cells assessed as upregulation of Bax expression at 0.2 to 5 uM; format: functional, cell-based; settings: dose 0.2-5 µM
MDA-MB-231 [39] = assay: Induction of apoptosis in human MDA-MB-231 cells assessed as late apoptotic cells at 1 uM incubated for 48 hrs by Annexin V/PI staining based flow cytometry analysis (reference value: 0.14%); format: functional
MDA-MB-231 [40] = assay: Induction of ferroptosis in human MDA-MB-231 cells assessed as increase in intracellular LPO accumulation incubated for 48 hrs by confocal laser scanning microscopic analysis; format: functional, cell-based; settings: dose 0.2-5 µM
MDA-MB-231 [41] = assay: Induction of apoptosis in human MDA-MB-231 cells assessed as early apoptotic cells at 1 uM incubated for 48 hrs by Annexin V/PI staining based flow cytometry analysis (reference value: 0.80%); format: functional
MDA-MB-231 [42] = assay: Induction of apoptosis in human MDA-MB-231 cells assessed as […] expression at 0.2 to 5 uM; format: functional, cell-based; settings: dose 0.2-5 µM
MDA-MB-231 [43] = assay: Induction of apoptosis in human MDA-MB-231 cells assessed as necrotic cells at 0.2 uM incubated for 48 hrs by Annexin V/PI staining based flow cytometry analysis (reference value: 0.03%); format: functional

Compound: Cc1sc2c(c1C)C(c1ccc(Cl)cc1)=N[C@@H](CC(=O)NC1CCN(C(=O)CCl)CC1)c1nnc(C)n1-2
- Activity (MDA-MB-231 [1]): Dose-dependent-effect
- Activity (MDA-MB-231 [2]): Dose-dependent-effect
- Activity [3]: Non-toxic
- IC50 (MDA-MB-231 [4]): 490 nM
- viability at 0.2 µM (MDA-MB-231 [5]): 88%
- Activity (MDA-MB-231 [6]): Active
- Activity (MDA-MB-231 [7]): Active
- viability at 1 µM (MDA-MB-231 [8]): 72.5%
- Activity (MDA-MB-231 [9]): 42.44%
- IC50 [10]: 331 nM
- Activity (MDA-MB-231 [11]): 53.71%
- Activity (MDA-MB-231 [12]): Active
- Activity (MDA-MB-231 [13]): 30.62%
- Activity (MDA-MB-231 [14]): Dose-dependent-effect
- Activity (MDA-MB-231 [15]): Dose-dependent-effect
- Activity (MDA-MB-231 [16]): 21.27%
- Activity (MDA-MB-231 [17]): 25.39%
- Activity (MDA-MB-231 [18]): 18.2%
- Activity (MDA-MB-231 [19]): Dose-dependent-effect
- Activity (MDA-MB-231 [20]): Dose-dependent-effect
- Activity (MDA-MB-231 [21]): 15.47%
- Activity (MDA-MB-231 [22]): Dose-dependent-effect
- Activity (MDA-MB-231 [23]): 0.7%
- Activity (MDA-MB-231 [24]): Active
- inhibition in vivo at 50 mg/kg (MDA-MB-231 [25]): 51.4%
- Activity (MDA-MB-231 [26]): 10.25%
- viability at 5 µM (MDA-MB-231 [27]): 59.7%
- IC50 at 72 h [28]: 2560 nM
- Activity (MDA-MB-231 [29]): 1.44%
- Activity (MDA-MB-231 [30]): Dose-dependent-effect
- Activity (MDA-MB-231 [31]): 60.87%
- Activity (MDA-MB-231 [32]): Active
- Activity (MDA-MB-231 [33]): 5.14%
- Activity (MDA-MB-231 [34]): Dose-dependent-effect
- Activity (MDA-MB-231 [35]): 6.1%
- IC50 (BT-549): 520 nM
- Activity (MDA-MB-231 [36]): 28.88%
- Activity (MDA-MB-231 [37]): 32.17%
- Activity (MDA-MB-231 [38]): Active
- Activity (MDA-MB-231 [39]): 9.51%
- Activity (MDA-MB-231 [40]): Dose-dependent-effect
- Activity (MDA-MB-231 [41]): 16.51%
- Activity (MDA-MB-231 [42]): Active
- Activity (MDA-MB-231 [43]): 0.68%
